Measured values reported in US20250249006A1, “TREATMENT” (Verona Pharma PLC, priority 2024, published 2025).

What was measured:
[1] = test system: patients aged 40-80 years with moderate to severe COPD; experiment: Clinical studies, ensifentrine vs placebo: lung function (average FEV1 AUC0-12h); assay type: in vivo
Description: (§1) Clinical studies were conducted to determine the efficacy of ensifentrine in treating COPD compared with placebo. Ensifentrine was administered by nebuliser at a dose of 3 mg twice daily (BID) for 24 weeks. The studies were multi-centre, randomized, double-blind, parallel-group, placebo-controlled trials.
(§2) The study population included patients aged 40-80 years with moderate to severe COPD (FEV1 30%-70% p.n., FEV1/forced vital capacity (FVC) ratio<0.7, with mMRC≥2). The randomization stratified (a) the use of stable background maintenance LAMA or LABA therapy use (approx. 50%. yes or no) and (b) cigarette smoking (current or former). Inhaled corticosteroid (ICS) maintenance therapy was permitted in up to 20% of patients under certain provisions.
The primary endpoint was change from baseline in average FEV1 area under the curve AUC0-12h post-dose at week 12. Also assessed were COPD symptoms and quality of life (QoL) in patients showing lower responses in terms of lung function, and in particular patients with: (i) improvement in average FEV1 AUC0-12h of less than 100 mL and (ii) improvement in morning trough FEV1 of less than 100 mL, less than 60 mL or less than 40 mL. […]
Average FEV1 AUC0-12h is defined as area under the curve over 12 hours of the FEV1, divided by 12 hours. […] Morning trough FEV1 is defined as the FEV1 assessed at 11.5 to 12 hours following the prior evening dose.

[2] = test system: patients aged 40-80 years with moderate to severe COPD; experiment: Clinical studies, ensifentrine vs placebo: quality of life responders (SGRQ −4 units) in patients with low FEV1 response; assay type: in vivo; settings: for Ensifentrine vs. Placebo Odds Ratio, SGRQ (−4 Unit) Responders / Odds in favor of a response, SGRQ (−4 Unit) Responders: logistic regression; for Ensifentrine vs. Placebo Odds Ratio, SGRQ (−4 Unit) Responders / Odds in favor of a response, SGRQ (−4 Unit) Responders / % SGRQ (−4 Unit) Responders / % responders, SGRQ (−4 Units) Responders / Ensifentrine v placebo Odds Ratio, SGRQ (−4 Units) Responders / Odds in favour of response, SGRQ (−4 Units) Responders: pooled mITT; for % SGRQ (−4 Unit) Responders / % responders, SGRQ (−4 Units) Responders: 3 mg BID nebuliser; for % responders, SGRQ (−4 Units) Responders / Ensifentrine v placebo Odds Ratio, SGRQ (−4 Units) Responders / Odds in favour of response, SGRQ (−4 Units) Responders: improvement in morning trough FEV1 less than 40 mL (table line prints <60 mL); for proportion of patients with a clinically important improvement in QoL: over 24 weeks
Description: as §1, §2
The primary endpoint was change from baseline in average FEV1 area under the curve AUC0-12h post-dose at week 12. Also assessed were COPD symptoms and quality of life (QoL) in patients showing lower responses in terms of lung function, and in particular patients with: (i) improvement in average FEV1 AUC0-12h of less than 100 mL and (ii) improvement in morning trough FEV1 of less than 100 mL, less than 60 mL or less than 40 mL.
COPD symptoms were assessed using Evaluating Respiratory Symptoms (E-RS; EXACT-Respiratory Symptoms, The minimal clinically important difference (MCID) of the E-RS is a total score of −2 units. User Manual (Version 3.0), October 2014) and Transitional Dyspnea Index (TDI; Mahler et al, The MCID of the transition dyspnea index is a total score of one unit. COPD 2005, 2:99-103.) and QoL was assessed using the St. George's Respiratory Questionnaire (SGRQ; Jones, St. George's Respiratory Questionnaire: The MCID of the SGRQ is a total score of −4 units. COPD 2005, 2:75-79.).

[3] = average FEV1 AUC0-12h <100 mL at Week 12, Week 6
[4] = average FEV1 AUC0-12h <100 mL at Week 12, Week 12
[5] = average FEV1 AUC0-12h <100 mL at Week 12, Week 24
[6] = morning trough FEV1 <60 mL at Week 6, Week 6
[7] = morning trough FEV1 <60 mL at Week 12, Week 12
[8] = morning trough FEV1 <60 mL at Week 24, Week 24
[9] = morning trough FEV1 <100 mL at Week 6, Week 6
[10] = morning trough FEV1 <100 mL at Week 12, Week 12
[11] = morning trough FEV1 <100 mL at Week 24, Week 24

## COc1cc2c(cc1OC)-c1c/c(=N\c3c(C)cc(C)cc3C)n(CCNC(N)=O)c(=O)n1CC2 [Ensifentrine, N-(2-{(2E)-9,10-dimethoxy-4-oxo-2-[(2,4,6-trimethylphenyl)imino]-6,7-dihydro-2H-pyrimido[6,1-a]isoquinolin-3(4H)-yl}ethyl)urea]
[1]; Week 12, 3 mg BID nebuliser vs placebo
  primary endpoint of average FEV1 (AUC)0-12h: met
[1]; all subgroups
  improvement in lung function: statistically significant
[2]; FEV1 AUC0-12h <100 mL or morning trough FEV1 <100, <60 or <40 mL, overall conclusion
  subjects achieving QoL MCID: ~50%
[2]; [3]
  Ensifentrine vs. Placebo Odds Ratio, SGRQ (−4 Unit) Responders: 1.32
  Odds in favor of a response, SGRQ (−4 Unit) Responders: 1.10
[2]; [4]
  Ensifentrine vs. Placebo Odds Ratio, SGRQ (−4 Unit) Responders: 1.31
  Odds in favor of a response, SGRQ (−4 Unit) Responders: 0.92
[2]; [5]
  Ensifentrine vs. Placebo Odds Ratio, SGRQ (−4 Unit) Responders: 1.04
  Odds in favor of a response, SGRQ (−4 Unit) Responders: 0.95
[2]; average FEV1 AUC0-12h <100 mL at Week 12, responders at Week 6
  % SGRQ (−4 Unit) Responders: 45.4%
[2]; average FEV1 AUC0-12h <100 mL at Week 12, responders at Week 12
  % SGRQ (−4 Unit) Responders: 45.4%
[2]; average FEV1 AUC0-12h <100 mL at Week 12, responders at Week 24
  % SGRQ (−4 Unit) Responders: 48.5%
[2]; Week 6
  % responders, SGRQ (−4 Units) Responders: 42.6%
  Ensifentrine v placebo Odds Ratio, SGRQ (−4 Units) Responders: 1.260
  Odds in favour of response, SGRQ (−4 Units) Responders: 0.903
[2]; Week 12
  % responders, SGRQ (−4 Units) Responders: 44.7%
  Ensifentrine v placebo Odds Ratio, SGRQ (−4 Units) Responders: 1.316
  Odds in favour of response, SGRQ (−4 Units) Responders: 0.802
[2]; Week 24
  % responders, SGRQ (−4 Units) Responders: 48.7%
  Ensifentrine v placebo Odds Ratio, SGRQ (−4 Units) Responders: 1.138
  Odds in favour of response, SGRQ (−4 Units) Responders: 0.797
[2]; increase in average FEV1 AUC0-12h less than 100 mL at Week 12
  proportion of patients with a clinically important improvement in QoL: half
[2]; increase in morning trough FEV1 less than 100 mL at Week 12
  proportion of patients with a clinically important improvement in QoL: half
[2]; [6]
  Ensifentrine vs. Placebo Odds Ratio, SGRQ (−4 Unit) Responders: 1.25
  Odds in favor of a response, SGRQ (−4 Unit) Responders: 0.98
[2]; morning trough FEV1 <60 mL at Week 6, responders at Week 6
  % SGRQ (−4 Unit) Responders: 43.4%
[2]; [7]
  Ensifentrine vs. Placebo Odds Ratio, SGRQ (−4 Unit) Responders: 1.28
  Odds in favor of a response, SGRQ (−4 Unit) Responders: 0.82
[2]; morning trough FEV1 <60 mL at Week 12, responders at Week 12
  % SGRQ (−4 Unit) Responders: 45.1%
[2]; [8]
  Ensifentrine vs. Placebo Odds Ratio, SGRQ (−4 Unit) Responders: 1.07
  Odds in favor of a response, SGRQ (−4 Unit) Responders: 0.79
[2]; morning trough FEV1 <60 mL at Week 24, responders at Week 24
  % SGRQ (−4 Unit) Responders: 48.2%
[2]; [9]
  Ensifentrine vs. Placebo Odds Ratio, SGRQ (−4 Unit) Responders: 1.29
  Odds in favor of a response, SGRQ (−4 Unit) Responders: 1.09
[2]; morning trough FEV1 <100 mL at Week 6, responders at Week 6
  % SGRQ (−4 Unit) Responders: 45.0%
[2]; [10]
  Ensifentrine vs. Placebo Odds Ratio, SGRQ (−4 Unit) Responders: 1.34
  Odds in favor of a response, SGRQ (−4 Unit) Responders: 0.80
[2]; morning trough FEV1 <100 mL at Week 12, responders at Week 12
  % SGRQ (−4 Unit) Responders: 46.3%
[2]; [11]
  Ensifentrine vs. Placebo Odds Ratio, SGRQ (−4 Unit) Responders: 1.03
  Odds in favor of a response, SGRQ (−4 Unit) Responders: 0.77
[2]; morning trough FEV1 <100 mL at Week 24, responders at Week 24
  % SGRQ (−4 Unit) Responders: 48.1%
